Test system: 616215-338-R-J1-PDC complex spheroids, viability % test/control
Test: Anticancer human tumor 616215-338-R-J1-PDC patient-derived colon adenocarcinoma cell line growth inhibition [CLK]
Settings: for IC50: curve of first compound; for viability, T/C: stronger effect = lower value
Summary of the method: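 Multi-cell-type spheroids combined patient-derived tumor cells with HUVEC endothelial cells and human mesenchymal stem cells. Paired agents were dosed in half-log steps down from about clinical Cmax, or from 10 microM where Cmax was unknown.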

[1] = second compound 0.0316 µM, first compound 0.0316 µM
[2] = second compound 0.0316 µM, first compound 0.1 µM
[3] = second compound 0.0316 µM, first compound 0.316 µM
[4] = second compound 0.0316 µM, first compound 1 µM
[5] = second compound 0.0316 µM, first compound 3.16 µM
[6] = second compound 0.0316 µM, first compound 10 µM
[7] = second compound 0.1 µM, first compound 0.0316 µM
[8] = second compound 0.1 µM, first compound 0.1 µM
[9] = second compound 0.1 µM, first compound 0.316 µM
[10] = second compound 0.1 µM, first compound 1 µM
[11] = second compound 0.1 µM, first compound 3.16 µM
[12] = second compound 0.1 µM, first compound 10 µM
[13] = second compound 0.316 µM, first compound 0.0316 µM
[14] = second compound 0.316 µM, first compound 0.1 µM
[15] = second compound 0.316 µM, first compound 0.316 µM
[16] = second compound 0.316 µM, first compound 1 µM
[17] = second compound 0.316 µM, first compound 3.16 µM
[18] = second compound 0.316 µM, first compound 10 µM
[19] = second compound 1 µM, first compound 0.0316 µM
[20] = second compound 1 µM, first compound 0.1 µM
[21] = second compound 1 µM, first compound 0.316 µM
[22] = second compound 1 µM, first compound 1 µM
[23] = second compound 1 µM, first compound 3.16 µM
[24] = second compound 1 µM, first compound 10 µM
[25] = second compound 3.16 µM, first compound 0.0316 µM
[26] = second compound 3.16 µM, first compound 0.1 µM
[27] = second compound 3.16 µM, first compound 0.316 µM
[28] = second compound 3.16 µM, first compound 1 µM
[29] = second compound 3.16 µM, first compound 3.16 µM
[30] = second compound 3.16 µM, first compound 10 µM
[31] = second compound 10 µM, first compound 0.0316 µM
[32] = second compound 10 µM, first compound 0.1 µM
[33] = second compound 10 µM, first compound 0.316 µM
[34] = second compound 10 µM, first compound 1 µM
[35] = second compound 10 µM, first compound 3.16 µM
[36] = second compound 10 µM, first compound 10 µM
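Note: spheroids exposed to agents for 7 days.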
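Throughout, for viability, T/C: 100% = DMSO vehicle wells.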

COC1C=CCC(C)C(C)S(=O)(=O)NC(=O)c2ccc3c(c2)N(CC2CCC21)CC1(CCCc2cc(Cl)ccc21)CO3 (centres undefined) + CN1CCN(c2cc(C(=O)Nc3cc4cc(-c5cnn(C)c5)ccc4cn3)ccn2)CC1 gave an IC50 (second compound 0.0316 µM) of 2360 nM, an IC50 (second compound 0.1 µM) of 2870 nM and an IC50 (second compound 0.316 µM) of under 31.6 nM. For the same compound, the IC50 (second compound 1 µM) was under 31.6 nM, the IC50 (second compound 3.16 µM) was under 31.6 nM and the IC50 (second compound 10 µM) was under 31.6 nM. The viability, T/C [1] was 45.7%, the viability, T/C [2] was 32.5% and the viability, T/C [3] was 111%. For the same compound, the viability, T/C [4] was 106%, the viability, T/C [5] was 41.9% and the viability, T/C [6] was 0.01%. It also gave a viability, T/C [7] of 41.4%, a viability, T/C [8] of 44.4% and a viability, T/C [9] of 122%. For the same compound, the viability, T/C [10] was 116%, the viability, T/C [11] was 47.2% and the viability, T/C [12] was 0.01%. For the same compound, the viability, T/C [13] was 9.08%, the viability, T/C [14] was 9.53% and the viability, T/C [15] was 21.3%. It also gave a viability, T/C [16] of 28.6%, a viability, T/C [17] of 20% and a viability, T/C [18] of 0.01%. It also gave a viability, T/C [19] of 0.68%, a viability, T/C [20] of 0.08% and a viability, T/C [21] of 0.17%. For the same compound, the viability, T/C [22] was 0.14%, the viability, T/C [23] was 0.94% and the viability, T/C [24] was 0.01%. It also gave a viability, T/C [25] of 0.04%, a viability, T/C [26] of 0.07% and a viability, T/C [27] of 0.18%. It also gave a viability, T/C [28] of 0.16%, a viability, T/C [29] of 0.18% and a viability, T/C [30] of 0.01%. The viability, T/C [31] was 0.08%, the viability, T/C [32] was 0.09% and the viability, T/C [33] was 0.24%. It also gave a viability, T/C [34] of 0.27%, a viability, T/C [35] of 0.33% and a viability, T/C [36] of 0.01%.

CC(=O)O[C@H]1C(=O)[C@@]2(C)[C@H]([C@H](OC(=O)c3ccccc3)[C@]3(O)C[C@H](OC(=O)[C@H](O)[C@@H](NC(=O)c4ccccc4)c4ccccc4)C(C)=C1C3(C)C)[C@]1(OC(C)=O)CO[C@@H]1C[C@@H]2O + CN1CCN(c2cc(C(=O)Nc3cc4cc(-c5cnn(C)c5)ccc4cn3)ccn2)CC1 was tested, and the IC50 (second compound 0.0316 µM) was under 31.6 nM, the IC50 (second compound 0.1 µM) was under 31.6 nM and the IC50 (second compound 0.316 µM) was under 31.6 nM. It also gave an IC50 (second compound 1 µM) of under 31.6 nM, an IC50 (second compound 3.16 µM) of under 31.6 nM and an IC50 (second compound 10 µM) of under 31.6 nM. It also gave a viability, T/C [1] of 31.2%, a viability, T/C [2] of 21.8% and a viability, T/C [3] of 14.7%. For the same compound, the viability, T/C [4] was 18%, the viability, T/C [5] was 18.6% and the viability, T/C [6] was 22.4%. For the same compound, the viability, T/C [7] was 31.1%, the viability, T/C [8] was 17.9% and the viability, T/C [9] was 19.9%. The viability, T/C [10] was 16.4%, the viability, T/C [11] was 17.4% and the viability, T/C [12] was 25.2%. For the same compound, the viability, T/C [13] was 21.8%, the viability, T/C [14] was 18% and the viability, T/C [15] was 19.3%. The viability, T/C [16] was 16.1%, the viability, T/C [17] was 19.9% and the viability, T/C [18] was 20.5%. It also gave a viability, T/C [19] of 0.09%, a viability, T/C [20] of 0.12% and a viability, T/C [21] of 3.34%. For the same compound, the viability, T/C [22] was 0.08%, the viability, T/C [23] was 0.1% and the viability, T/C [24] was 3.08%. For the same compound, the viability, T/C [25] was 0.05%, the viability, T/C [26] was 0.11% and the viability, T/C [27] was 0.13%. The viability, T/C [28] was 0.1%, the viability, T/C [29] was 1.96% and the viability, T/C [30] was 2.3%. For the same compound, the viability, T/C [31] was 0.06%, the viability, T/C [32] was 0.13% and the viability, T/C [33] was 0.17%. For the same compound, the viability, T/C [34] was 0.16%, the viability, T/C [35] was 0.19% and the viability, T/C [36] was 1.72%.
